Experimental data published in US6180622A, “Imidazo[5,1-b]thiazol-3-yl carbapenem antimicrobials” (priority 1996, dated 2001).
≈ marks a conversion by molar mass, not a printed value. Read-outs that look alike come from different tables or passages of the source.

Columns and labels:
[1] = Stability against DHP-I (mouse); format: in vitro ADME; settings: kidney dhp-i, 100 μg (potency)/ml, 37° C., pH 7.0, read-out: residue (%) of the carbapenem derivative
Experimental: (§1) The stability of representative compounds, among the novel carbapenem derivatives of the present invention, against kidney dehydropeptidase-I (DHP-I) of a pig and a mouse was measured, and the residue (%) of the carbapenem derivatives three hr after the initiation of the test is summarized in Table 6.
(§2) 1.5 g of a kidney acetone powder (manufactured by Sigma) Porcine Type II (Lot. 33H7225) was suspended in 100 ml of 50 mM Tris-HCl buffer (pH 7.0) containing 20% butanol, and the suspension was stirred at 5° C. for 48 hr. The suspension was then dialyzed against 50 mM Tris-HCl buffer (pH 7.0) (a cellulose tube 30/32 Viskase Sales Corp.) until the odor of butanol disappeared, thereby removing butanol. The dialyzate is centrifuged at 10000×g (KUBOTA 6800) for 20 min, and the supernatant was obtained as a partially purified DHP-I. This partially purified DHP-I was subdivided and stored at -80° C. The above procedure was repeated, except that 1.5 g of Mouse (Lot. 23F8105) was used. Thus, a partially purified DHP-I was prepared and stored.
(§3) For the carbapenem as the substrate agent, a solution (2000 μg (potency)/ml) was prepared using sterilized, purified water. For the sample solution, the carbapenem (2000 μg (potency)/ml) solution was added to the partially purified DHP-I of each animal to a final concentration of 100 μg (potency)/ml). For the blank, 50 mM Tris-HCl buffer (pH 7.0) was used instead of the partially purified DHP-I of each animal. The reaction was allowed to proceed at 37° C. for 3 hr, and a given amount of the reaction mixture was sampled. Methanol in the same amount as the sampled reaction mixture was added under ice cooling to terminate the reaction. The reaction mixture was filtered through a filter (Sanprep LCR 13-LH manufactured by MILLIPORE) and subjected to HPLC (column: CAPCELL PACK C18SG120, manufactured by Shiseido Co., Ltd.; detection: UV; mobile layer: acetonitrile/10 mM aqueous acetic acid solution) to determined the residue (%).
(§4) Residue (%)=(Sample Peak Area/Blank Peak Area)×100

E. coli NIHJ JC-2 = experiment: Antimicrobial activity (minimum inhibitory concentration); format: cell-based; settings: Escherichia coli, NIHJJC2
Experimental: (§5) For representative compounds among the novel carbapenem derivatives of the present invention, the minimum inhibitory concentration (MIC, μg/ml) against various pathogenic bacteria was measured in accordance with a method described in CHEMOTHERAPY, Vol. 16, No. 1, 99 (1968).

E. coli GN206 = experiment: as above; format: cell-based; settings: Escherichia coli
Experimental: as §5

S. marcescens No. 1 = experiment: as above; format: cell-based; settings: Serratia marcescens
Experimental: as §5

M. morganii 1510 = experiment: as above; format: cell-based; settings: Morganella morganii
Experimental: as §5

S. aureus M126 = experiment: as above; format: cell-based; settings: Staphylococcus aureus; S. aureus M126, highly meticillin-resistant strain
Experimental: as §5

S. aureus 209P JC-1 = experiment: as above; format: cell-based; settings: Staphylococcus aureus
Experimental: as §5

C. freundii GN346 = experiment: as above; format: cell-based; settings: Citrobacter freundii
Experimental: as §5

Ps. aeruginosa GN10362 = experiment: as above; format: cell-based; settings: Pseudomonas aeruginosa
Experimental: as §5

K. pneumoniae PCI602 = experiment: as above; format: cell-based; settings: Klebsiella pneumoniae
Experimental: as §5

P. vulgaris GN76 = experiment: as above; format: cell-based; settings: Proteus vulgaris
Experimental: as §5

E. cloacae G-0008 = experiment: as above; format: cell-based; settings: Enterobacter cloacae, G0008
Experimental: as §5

[2] = Stability against DHP-I (pig); format: in vitro ADME; settings: kidney dhp-i, 100 μg (potency)/ml, 37° C., pH 7.0, read-out: residue (%) of the carbapenem derivative
Experimental: as §1, §2, §3, §4

[3] = Ps. aeruginosa GN10362, read-out: MIC
[4] = P. vulgaris GN76, read-out: MIC

| remaining at 3 h [1] | MIC (E. coli NIHJ JC-2) | MIC (E. coli GN206) | MIC (S. marcescens No. 1) | MIC (M. morganii 1510) | MIC (S. aureus M126) | MIC (S. aureus 209P JC-1) | MIC (C. freundii GN346) | MIC (K. pneumoniae PCI602) | MIC (E. cloacae G-0008) | remaining at 3 h [2] | MIC (Ps. aeruginosa GN10362; [3]) | MIC (P. vulgaris GN76; [4]) | Structure (SMILES) | MIC (Ps. aeruginosa GN10362; GN10362) | MIC (P. vulgaris GN76; GN76) |
| --- | --- | --- | --- | --- | --- | --- | --- | --- | --- | --- | --- | --- | --- | --- | --- |
| 28% | 0.1 µg/mL (≈ 0.295 µM) | 0.2 µg/mL (≈ 0.589 µM) | 0.39 µg/mL (≈ 1.15 µM) | 0.78 µg/mL (≈ 2.3 µM) | 25 µg/mL (≈ 73.7 µM) | < 0.025 µg/mL | 0.2 µg/mL (≈ 0.589 µM) | 0.2 µg/mL (≈ 0.589 µM) | 0.2 µg/mL (≈ 0.589 µM) | 19% | 12.5 µg/mL (≈ 36.8 µM) | 3.13 µg/mL (≈ 9.22 µM) | CC(=N)N1CC[C@H](SC2=C(C(=O)O)N3C(=O)[C@H]([C@@H](C)O)[C@H]3C2)C1 [Compound B, Panipenem, reference compound] |  |  |
| 97% |  |  |  |  |  |  |  |  |  | 100% |  |  | C[C@@H](O)[C@H]1C(=O)N2C(C(=O)O)=C(S[C@@H]3CN[C@H](Cc4csc5cncn45)C3)[C@H](C)[C@H]12 [Ex. 20, (1R,5S,6S)-6-((1R)-1-Hydroxyethyl)-2-[(3S,5R)-5-(imidazo[5,1-b]thiazol-3-yl)methylpyrrolidin-3-yl]thio-1-methylcarbapen-2-em-3-carboxylic acid] |  |  |
| 90% | 0.05 µg/mL | 0.05 µg/mL | 0.2 µg/mL | 0.39 µg/mL | 6.25 µg/mL | < 0.025 µg/mL | 0.05 µg/mL | 0.1 µg/mL | 0.05 µg/mL | 95% | 0.78 µg/mL | 0.39 µg/mL | C[C@@H](O)[C@H]1C(=O)N2C(C(=O)O)=C(S[C@@H]3CN[C@H](Cc4cn5c[n+](CC(N)=O)cc5s4)C3)[C@H](C)[C@H]12 [Ex. 26, (1R,5S,6S)-2-[(3S,5S)-5-[6-(Carbamoylmethyl)imidazo[5,1-b]thiazolium-2-yl]methylpyrrolidin-3-yl]thio-6-((1R)-1-hydroxyethyl)-1-methylcarbapen-2-em-3-carboxylic acid iodide] |  |  |

| Structure (SMILES) | remaining at 3 h [1] | MIC (E. coli NIHJ JC-2) | MIC (E. coli GN206) | MIC (S. marcescens No. 1) | MIC (M. morganii 1510) | MIC (S. aureus M126) | MIC (S. aureus 209P JC-1) | MIC (C. freundii GN346) | MIC (K. pneumoniae PCI602) | MIC (E. cloacae G-0008) | remaining at 3 h [2] | MIC (Ps. aeruginosa GN10362; [3]) | MIC (P. vulgaris GN76; [4]) | MIC (Ps. aeruginosa GN10362; GN10362) | MIC (P. vulgaris GN76; GN76) |
| --- | --- | --- | --- | --- | --- | --- | --- | --- | --- | --- | --- | --- | --- | --- | --- |
| C[C@@H](O)[C@H]1C(=O)N2C(C(=O)O)=C(SCCN=CN)C[C@H]12 [Compound A, Imipenem, reference compound] | 0.6% | 0.1 µg/mL (≈ 0.334 µM) | 0.1 µg/mL (≈ 0.334 µM) | 0.39 µg/mL (≈ 1.3 µM) | 0.78 µg/mL (≈ 2.61 µM) | 50 µg/mL (≈ 167 µM) | < 0.025 µg/mL | 0.1 µg/mL (≈ 0.334 µM) | 0.39 µg/mL (≈ 1.3 µM) | 0.1 µg/mL (≈ 0.334 µM) | 24% |  |  | 1.56 µg/mL (≈ 5.21 µM) | 3.13 µg/mL (≈ 10.5 µM) |
